Source: ChEMBL document CHEMBL1135175, “Synthesis and bioactivities of novel bicyclic thiophenes and 4,5,6,7-tetrahydrothieno[2,3-c]pyridines as inhibitors of tumor necrosis factor-alpha (TNF-alpha) production” (Bioorg Med Chem Lett, 2002)

How the values were obtained:
Rattus norvegicus [1] = species on record: Rattus norvegicus; assay: Evaluated for its ability to inhibit LPS stimulated production of TNF-alpha in rat whole blood; type: functional, organism-based
Rattus norvegicus [2] = assay: TNF-alpha inhibiting activity by in vivo inhibition of serum TNF production in rat at 50 mg/kg, peroral administration.; type: functional; settings: route oral
Rattus norvegicus [3] = assay: Compound was evaluated for percentage recovery from GAG in adjuvant-induced arthritic model of rat at a dose of 10 mg/kg; type: functional, organism-based; parameters: dose 10 mg/kg
Rattus norvegicus [4] = assay: Compound was evaluated for percentage recovery from femur weight in adjuvant-induced arthritic model of rat at a dose of 10 mg/kg; type: functional, organism-based; parameters: dose 10 mg/kg
Rattus norvegicus [5] = assay: Compound was evaluated for percentage recovery from paw edema in adjuvant-induced arthritic model of rat at a dose of 10 mg/kg; type: functional, organism-based; parameters: dose 10 mg/kg
Rattus norvegicus [6] = assay: TNF-alpha inhibiting activity was assessed by In vivo inhibition of serum TNF production in rat, at 50 mg/kg, po; type: functional
Rattus norvegicus [7] = assay: Compound was evaluated for percentage recovery from GAG in adjuvant-induced arthritic model of rat at a dose of 50 mg/kg; type: functional
Rattus norvegicus [8] = assay: Compound was evaluated for percentage recovery from femur weight in adjuvant-induced arthritic model of rat at a dose of 50 mg/kg; type: functional
Rattus norvegicus [9] = assay: Compound was evaluated for percentage recovery from paw edema in adjuvant-induced arthritic model of rat at a dose of 50 mg/kg; type: functional
Rattus norvegicus [10] = assay: Compound was evaluated for percentage recovery from GAG in adjuvant-induced arthritic model of rat at a dose of 2 mg/kg; type: functional
Rattus norvegicus [11] = assay: Compound was evaluated for percentage recovery from femur weight in adjuvant-induced arthritic model of rat at a dose of 2 mg/kg; type: functional
Rattus norvegicus [12] = assay: Compound was evaluated for percentage recovery from paw edema in adjuvant-induced arthritic model of rat at a dose of 2 mg/kg; type: functional

Compound | IC50 (Rattus norvegicus [1]) [µM] | inhibition in vivo at 50 mg/kg (Rattus norvegicus [2]) [%] | also measured
CCCN1CCc2c(sc(NC(=O)C(C)C)c2C(=O)OCC)C1 | 40 | – | –
CCOC(=O)c1c(NC(=O)NC(Cc2ccccc2)C(=O)OC)sc2c1CCN(C(C)=O)C2 (stereo unspecified) | 0.9 | 8.2 | –
CCCN(CC1CC1)C(=O)Nc1sc2c(c1C(=O)OCC)CCN(C(C)=O)C2 | 1.3 | 34.8 | –
CCOC(=O)c1c(N(C)C(=O)N(CC)CC)sc2c1CCN(C(C)=O)C2 | 12 | 51.9 | –
CCOC(=O)c1c(NC(=O)N2CCSCC2)sc2c1CCN(C(C)=O)C2 | 12 | 20 | –
CCOC(=O)c1c(NC(=O)C2CC2)sc2c1CCN(C(C)=O)C2 | – | 64.2 | –
AURANOFIN | – | – | GAG (Rattus norvegicus [3]): 73%; Femur weight (Rattus norvegicus [4]): 17%; Paw edema (Rattus norvegicus [5]): -4.7%
CCOC(=O)c1c(N(C)C(=O)CC)sc2c1CCN(C(C)=O)C2 | 9 | 81 | –
CCOC(=O)c1c(NC(=O)C(C)C)sc2c1CCN(Cc1ccccc1)C2 | 42 | – | –
CCOC(=O)c1c(NC(=O)C(C)C)sc2c1CCN(CC)C2 | 15 | 69.2 | –
CCOC(=O)c1c(NC(=O)N2CCN(C=O)CC2)sc2c1CCN(C(C)=O)C2 | 22 | 41.9 | –
CCOC(=O)c1c(NC(=O)CC)sc2c1CCN(C(C)=O)C2 | 7.9 | 90.1 | –
CC(=O)N1CCc2c(sc(NC(=O)C(C)C)c2C(=O)OC(C)C)C1 | 7.1 | 42.1 | –
CCOC(=O)c1c(NC(=O)C(C)C)sc2c1CCN(C(C)=O)C2 | – | 49.1 | –
CCOC(=O)c1c(NC(=O)Nc2cccnc2)sc2c1CCN(C(C)=O)C2 | 13 | 48.7 | –
CCCCC(=O)Nc1sc2c(c1C(=O)OCC)CCN(C(C)=O)C2 | 18 | 42.9 | –
CCOC(=O)c1c(NC(=O)C(C)C)sc2c1CCOC2 | 10 | 17.6 | –
CCOC(=O)c1c(NC(=O)C(C)C)sc2c1CCN(C(=O)c1ccccc1)C2 | 10 | 31.8 | –
CCCC(=O)Nc1sc2c(c1C(=O)OCC)CCN(C(C)=O)C2 | 28 | 33.3 | –
CCCCC(CC)COC(=O)c1c(NC(=O)C(C)C)sc2c1CCN(C(C)=O)C2 (stereo unspecified) | 10 | 10.6 | –
CCOC(=O)c1c(NC(=O)N2CCNCC2)sc2c1CCN(C(C)=O)C2 | 16 | 51.4 | –
CCOC(=O)c1c(NC(C)=O)sc2c1CCN(C(C)=O)C2 | 13 | 78.4 | –

Compound | IC50 (Rattus norvegicus [1]) [µM] | inhibition in vivo at 50 mg/kg (Rattus norvegicus [2]) [%] | also measured
CCOC(=O)c1c(NC(=O)c2cccnc2)sc2c1CCN(C(C)=O)C2 | – | 23.5 | –
CCOC(=O)c1c(NC(=O)CC)sc2c1CCN(CC)C2 | 22 | 9.2 | –
CCOC(=O)c1c(NC(=O)N2CCN(C)CC2)sc2c1CCN(C(C)=O)C2 | 17 | 40.7 | –
CCOC(=O)c1c(NC(=O)NN2CCOCC2)sc2c1CCN(C(C)=O)C2 | 12 | 22.1 | –
CC(=O)N1CCc2c(sc(NC(=O)C(C)C)c2C#N)C1 | 22 | 23.2 | –
CCOC(=O)c1c(NC(=O)C(C)(C)C)sc2c1CCN(C(C)=O)C2 | 11 | 63.7 | –
CCOC(=O)c1c(NC(=O)N2CCOCC2)sc2c1CCN(C(C)=O)C2 | 1 | 90.3 | –
CC(=O)N1CCc2c(sc(NC(=O)C(C)C)c2C(N)=O)C1 | > 100 | – | –
CCOC(=O)c1c(NC(=O)N(CC)C2CCCCC2)sc2c1CCN(C(C)=O)C2 | 12 | 7.6 | –
CCOC(=O)c1c(NC(=O)C(C)C)sc2c1CCCC2 | 28 | 1.8 | –
CCOC(=O)c1c(NC(=O)N2CCCCC2)sc2c1CCN(C(C)=O)C2 | 13 | 46.8 | –
CCNC(=O)Nc1sc2c(c1C(=O)OCC)CCN(C(C)=O)C2 | 19 | 17 | –
CCOC(=O)c1c(NC(=O)N(CC)CC)sc2c1CCN(CC)C2 | 2.2 | – | inhibition in vivo at 50 mg/kg (Rattus norvegicus [6]): 88.7%
CCOC(=O)Nc1sc2c(c1C(=O)OCC)CCN(C(C)=O)C2 | 20 | 57.1 | –
CCOC(=O)c1c(NC(=O)CC(C)C)sc2c1CCN(C(C)=O)C2 | 20 | 33.1 | –
CCOC(=O)c1c(NC(=O)C(C)C)sc2c1CCSC2 | 34 | 21.2 | –
CCOC(=O)c1c(NC(=O)N(CC)CC)sc2c1CCN(C(C)=O)C2 | 6.2 | 92.3 | GAG (Rattus norvegicus [7]): 119%; Femur weight (Rattus norvegicus [8]): 110%; Paw edema (Rattus norvegicus [9]): 42.5%
CCOC(=O)c1c(NC(=O)C(C)C)sc2c1CCN(C)C2 | 32 | 22.7 | –
CCOC(=O)c1c(NC(=O)OCCN2CCOCC2)sc2c1CCN(C(C)=O)C2 | 13 | 57.6 | –
CCOC(=O)c1c(NC(=O)N2CCSC2)sc2c1CCN(CC)C2 | 6 | 5.4 | –
CC(=O)N1CCc2c(sc(NC(=O)C(C)C)c2C(=O)O)C1 | > 100 | – | –
COc1ccc2c(c1)c(CC(=O)O)c(C)n2C(=O)c1ccc(Cl)cc1 [INDOMETHACIN] | – | – | GAG (Rattus norvegicus [10]): 7.4%; Femur weight (Rattus norvegicus [11]): 20%; Paw edema (Rattus norvegicus [12]): 72.1%
